Assays:
human cancer cell lines = assay: Interference with paclitaxel- and platinum-induced cytotoxicity; assay type: cell-based
From the text: Tavocept mediates the non-enzymatic xenobiotic modification of sulfur-containing amino acid residues (e.g., cysteine) on proteins. As an engineered, non-naturally occurring agent (i.e., xenobiotic), Tavocept is autocatalytic and requires no protein cofactor to cause the xenobiotic modification of cysteine, but appears to be specific for cysteine residues located within a particular structural context (i.e., not all cysteines in a protein are so modified). Tavocept-mediated, xenobiotic modification represents a novel mechanism of action for a cancer treating agent and can be compared to a degree with post-translational modifications of cysteine residues in proteins (see, Table 3, below).

[1] = system: Stage IV primary adenocarcinoma of the lung; assay: Tavocept Phase III Clinical Trial (Interim Analysis); assay type: in vivo, patients
From the text: In the Tavocept Phase III Clinical Trial pre-specification was made through stratification factors including sex (i.e., male versus female) and taxane treatment (i.e., paclitaxel versus docetaxel). Eligible patients had not received prior drug treatment for their cancer, and inclusion in the trial was also allowed for patients who had relapsed following surgery for earlier stage disease as well as patients with central nervous system metastasis. A total of 540 patients were enrolled on the trial.
The primary endpoint of this study was overall survival (OS); defined as the time period from the date of patient randomization to the date of death due to any cause.
All patients received standard combination chemotherapy (taxane agent plus cisplatin) and either Tavocept or placebo.
The primary endpoint for analysis was the duration of overall survival, defined as the time from the date of randomization to the date of death due to any cause. The number of mortality events used for the final analysis depended upon the number of patients enrolled into the study (provided the sample size was adjusted at the interim analysis). For the primary analysis, the expected number of total mortality events was approximately 416 mortality events for a sample size of 575 patients.
The one-sided log-rank test was performed in order to allow the application of the adaptive methodology. Details of this 2-stage adaptive design are described below. Kaplan-Meier survival curves (including identification of censored observations) was presented by treatment group, as well as median survival times and their 95% confidence intervals.
The following specific endpoints were evaluated with pre-specified analyses in order to evaluate for potential clinically and statistically significant differences between Tavocept- and placebo-treated patients.
The incidence of cisplatin renal toxicity and anemia, and the impact of emesis on daily life were analyzed using the Cochran-Mantel-Haenszel (CMH) tests for proportions. The CMH test was applied in the comparison between Tavocept and placebo where adjustment for prognostic factors is clinically important (e.g., adjusting for baseline characteristics). To control for Type I error due to multiple comparisons of safety data, a nominal, 2-sided p-value of less than 0.0125 was used for each comparison of renal toxicity, anemia, and emesis.

Recombinant human Trx [2] = target: T1, Recombinant human Trx (Homo sapiens, UniProt P10599); assay: Native PAGE of Trx incubated with Tavocept; assay type: binding; design: purchased Sigma (SigmaAldrich); host or cells: E. coli; conditions: Tavocept 10 mM, 37° C., 0-48 hours
T1 sequence (P10599 1-105): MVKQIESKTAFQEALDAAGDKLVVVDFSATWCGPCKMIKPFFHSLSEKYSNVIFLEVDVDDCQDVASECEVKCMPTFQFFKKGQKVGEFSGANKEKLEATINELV
Description: (§1) Recombinant human Trx (1.5 mg, SigmaAldrich) was reduced using a vast excess of DTT (50 mM) in Tris buffer (100 mM, pH 8.0) at 37° C. for 50 minutes. […] (final reactions volumes were approximately 160 μL). At time selected times (0-48 hours), aliquots were removed and subjected to TrisGlycine Native or TrisGlycine SDS PAGE analysis. Gels were fixed in acetic acid/methanol and stained with Coomassie R-250.
as §1, with “mg)” for “mg, SigmaAldrich)”, “incubation reaction” for “reactions”

Recombinant human Trx [3] = target: T1, Recombinant human Trx; assay type: biochemical; design: 6xHis (N); purchased Sigma (Trx); American Diagnostica (bovine TrxR); conditions: Reaction B; disulfide 0.5 mM
Description: See, Luthman M and Holmgren A. Rat liver thioredoxin and thioredoxin reductase: purification and characterization. […] All disulfides were added to reactions as 10x solutions in buffer. The total volume of each reaction was 0.1 mL. Reactions were initiated by the addition of TrxR and were incubated at 25° C. for 40 minutes. Reactions were analyzed using a Molecular Devices SpectraMax Plus UV/vis plate reader and the activity was calculated using a 4 minute linear portion of each assay.

thioredoxin = target: T2, thioredoxin (Homo sapiens, UniProt P10599); assay: LC-MS of thioredoxin incubations; assay type: binding; conditions: ion at m/z 1288.3
T2 construct: purchased Sigma (SigmaAldrich); host or cells: E. coli

[4] = Female Non-Smokers receiving paclitaxel and cisplatin
[5] = Females receiving paclitaxel and cisplatin
[6] = Male & Female Non-Smokers receiving paclitaxel and cisplatin

## O=S(=O)([O-])CCSSCCS(=O)(=O)[O-].[Na+].[Na+] [Tavocept, disodium 2,2′-dithio-bis-ethane sulfonate]
Human cancer cell lines
  interference with paclitaxel- and platinum-induced cytotoxicity: not to interfere
[1]; [4]
  Median survival: 27.0 months
  Median survival advantage vs placebo: 13.6 months
[1]; [5]
  Median survival: 25.0 months
  Median survival advantage vs placebo: 11.8 months
[1]; [6]
  Median survival: 25.2 months
  Median survival advantage vs placebo: 12 months
[1]; PS 1 ECOG Performance Status subjects
  Median survival advantage vs placebo: 2.82 months
[1]; PS 1 ECOG females receiving paclitaxel and cisplatin
  Median survival advantage vs placebo: 11.1 months
[1]; PS 1 ECOG males and females receiving paclitaxel and cisplatin
  Median survival advantage vs placebo: 4.0 months
[1]; Stage IV M1b subjects
  Median survival: 11.33 months
[1]; all females receiving paclitaxel and cisplatin
  2-year survival: 51%
[1]; all subjects receiving paclitaxel and cisplatin
  2-year survival: 30%
[1]; all subjects, paclitaxel or docetaxel plus cisplatin, P=0.723
  Overall median survival advantage vs placebo: greater than 2 month
[1]; compared to placebo, P=0.0528
  Protection against chemotherapy-induced kidney toxicity: improvement in the relative creatine decrease from baseline
[1]; compared to the placebo arm
  Anemia: reduced anemia
[1]; female non-smokers receiving paclitaxel and cisplatin
  2-year survival: 72.4%
[1]; female subjects >=65 years receiving paclitaxel and cisplatin
  Median survival advantage vs placebo: 2.1 months
[1]; female subjects receiving paclitaxel plus cisplatin, Newly Diagnosed
  Median survival: 25.0 months
[1]; female subjects receiving paclitaxel plus cisplatin, no subsequent therapy
  Median survival: 14.2 months
[1]; female subjects with CNS Metastases, paclitaxel plus cisplatin, P=0.0343
  Survival vs placebo: Survival advantage in favor of Tavocept
[1]; male and female non-smokers receiving paclitaxel and cisplatin
  2-year survival: 63%
[1]; male and female subjects >=65 years receiving paclitaxel and cisplatin
  Median survival advantage vs placebo: 3.5 months
[1]; male and female subjects receiving paclitaxel plus cisplatin, Newly Diagnosed
  Median survival: 15.3 months
[1]; male and female subjects receiving paclitaxel plus cisplatin, no subsequent therapy
  Median survival: 10.0 months
[1]; patients previously receiving Tavocept, paclitaxel and cisplatin
  Median period of additional survival after starting new chemotherapy, longer than placebo: 3.4 months
[1]; patients receiving post-study new chemotherapy, paclitaxel and cisplatin
  Median overall survival from randomization: 23.0 months
[1]; subjects Newly Diagnosed at enrollment
  Median survival: 14.19 months
[1]; subjects greater than or equal to 65 years of age
  Median survival advantage vs placebo: 3 months
[1]; subjects who received paclitaxel and cisplatin
  Median survival: 15.4 months
[1]; subjects who received paclitaxel and cisplatin instead of docetaxel and cisplatin
  Median survival advantage vs placebo: 3.68 months
[1]; subjects with CNS Metastases present
  Median survival: 11.76 months
[1]; vs 9.2 months placebo
  Overall survival, patients receiving post study therapy: 12.2 months
Recombinant human Trx [2]
  Tris-glycine native gel electrophoresis profile of Trx: altered Tris-glycine native gel electrophoresis profile
Recombinant human Trx [3]
  Reduction of disulfide by Trx in the presence of TrxR and NADPH: readily reduced
thioredoxin
  mesna adduct on thioredoxin fragment CMPTFQFFK: Cys73-mesna adduct
